Where only a bound is given, the exact number is not on record here.

The subject of the assay is γ-glutamyl carboxylation reaction (human Gas6 in Gas6-HEK293 cells). The experiment in a line: Inhibitory action on γ-glutamyl carboxylation reaction (secreted γ-glutamyl carboxylated Gas6 by ELISA). It counts as cell-based. The settings on record: vitamin K2 100 nM, exposure 18 to 20 hours, ELISA absorbance at 620 nm, read-out: IC50 (50% inhibitory concentration for the γ-glutamyl carboxylation reaction). On the procedure:
Measurement of Inhibitory Action on γ-Glutamyl Carboxylation Reaction
Cells were used that expressed Gas6 excreted outside the cells when subjected to γ-glutamyl carboxylation, and inhibitory action on γ-glutamyl carboxylation reaction was assessed by measuring the secreted amount of extracellular Gas6 by ELISA method.
(A) Preparation for Assay Plate Containing Solid-Phase Anti-Human Gas6 Antibody
Goat anti-human Gas6 antibody (R&D Systems, Inc.) was diluted to 1 μg/ml with Dulbecco's phosphate-buffered saline, and 40 μl aliquots thereof were dispensed into each well of a 384-well microplate. After immobilizing the antibody to the solid phase by allowing it to stand at 4° C. overnight or at room temperature for 2 hours or more, each well was washed three times with wash buffer (10 mM Tris-HCl pH 7.4, 150 mM sodium chloride, 0.05% Tween20). After removing the supernatant, 80 μl aliquots of a 1% aqueous solution of Block Ace (Dainippon Sumitomo Pharma) were dispensed into each well and allowed to react at room temperature for 1 hour or more.
(B) Exposure of Test Compounds to Cells Stably Expressing Human Gas6
Cells that stably express human Gas6 (Gas6-HEK293), which were prepared by inserting human Gas6 gene (inserted between SalI and NotI within multiple cloning sites of pCIneo expression vector) into HEK293 cells, were grown and sub-cultured using Dulbecco's modified Eagle's medium (DMEM) containing 10% fetal calf serum (FCS). On the day before ELISA measurement, the Gas6-HEK293 cells were detached with trypsin-EDTA, dispersed in DMEM containing 10% FCS, and disseminated into each well of a 384-well, collagen type I-coated plate (Becton-Dickinson) in 30 μl aliquots containing 1.0×10^4 cells each, followed by culturing for 3 to 4 hours at 5% CO2 and 37° C. 30 μl aliquots of DMEM containing test compound solutions, prepared at various concentrations by dissolving in DMSO, and vitamin K2 at 0.1% and 100 nM, respectively (indicating final concentrations in both cases) were added to each well followed by additionally culturing for 18 to 20 hours.
(C) Quantification of γ-Glutamyl Carboxylated Gas6 by ELISA and Calculation of 50% Inhibitory Concentrations of γ-Glutamyl Carboxylation Reaction
After removing the 1% Block Ace aqueous solution from the preliminarily prepared assay plates containing solid phase anti-human Gas6 antibody, the culture supernatant of Gas6-HEK293 cells exposed to the test compounds was collected and 40 μl aliquots were dispensed into each well followed by allowing to react at room temperature for 2 hours (Step 1). The culture supernatant was removed and each well was washed three times with wash buffer. Thereafter, the same washing procedure was carried out between Steps 2 and 3 and Steps 3 and 4. Subsequently, 40 μl aliquots of mouse anti-human […] antibody (American Diagnostica inc.), adjusted to 0.5 μg/ml with immunoreaction buffer (100 mM Tris-HCl pH 7.4, 0.05% Tween20, 0.1% Block Ace), were dispensed into each well and allowed to react at room temperature for 1 hour (Step 2). Next, 40 μl aliquots of alkaline phosphatase-conjugated anti-mouse IgG antibody adjusted to 1.0 μg/ml with immunoreaction buffer were dispensed into each well and allowed to react at room temperature for 1 hour (Step 3). 40 μl aliquots of BluePhos Microwell (KPL) were dispensed into each well, and after incubating at room temperature for 10 minutes (Step 4), 20 μl aliquots of 5% EDTA were added to each well to stop the color development reaction, followed by measurement of absorbance at 620 nm (Step 5). […]
Background: ELISA stands for enzyme-linked immunosorbent assay.
With `Cc1nc2ccc(OC3CCN(C(=O)[C@@H](NC(=O)c4nc5ccccc5nc4O)C(C)C)CC3)cc2s1` [Example 91, 3-Hydroxy-N-[(1S)-2-methyl-1-({4-[(2-methyl-1,3-benzothiazol-6-yl)oxy]piperidin-1-yl}carbonyl)propyl]quinoxaline-2-carboxamide], the IC50 is 3.8 nM.

On to `CC(C)[C@H](NC(=O)c1nc2ccccc2nc1O)C(=O)N1CCC(Oc2ncc(-c3ccccc3)cn2)CC1` [Example 80, 3-Hydroxy-N-[(1S)-2-methyl-1-({4-[(5-phenylpyrimidin-2-yl)oxy]piperidin-1-yl}carbonyl)propyl]quinoxaline-2-carboxamide], for which the IC50 is 7.1 nM.

Consider `CC(C)[C@H](NC(=O)c1nc2ccccc2nc1O)C(=O)N1CCC(Oc2ccc(OC(F)(F)F)cc2)CC1` [Example 18, 3-Hydroxy-N-[(1S)-2-methyl-1-({4-[4-(trifluoromethoxy)phenoxy]piperidin-1-yl}carbonyl)propyl]quinoxaline-2-carboxamide], for which the IC50 was determined as 2.9 nM.

With `CC[C@H](NC(=O)c1nc2ccccc2nc1O)C(=O)N1CCC(Oc2ccc(F)cc2)CC1` [Example 8, N-[(1S)-1-{[4-(4-Fluorophenoxy)piperidin-1-yl]carbonyl}propyl]-3-hydroxyquinoxaline-2-carboxamide], the IC50 was 1.8 nM.

In the case of `CC(C)[C@H](NC(=O)c1nc2ccccc2nc1O)C(=O)N1CCC(Sc2ccc(F)cc2)CC1` [Example 45, N-[(1S)-1-({4-[(4-Fluorophenyl)thio]piperidin-1-yl}carbonyl)-2-methylpropyl]-3-hydroxyquinoxaline-2-carboxamide], the IC50 came out at 1.3 nM.

Regarding `O=C(N[C@H](C(=O)N1CCC(Oc2ccc(F)cc2)CC1)C1CC1)c1nc2ccccc2nc1O` [Example 13, N-{(1S)-1-Cyclopropyl-2-[4-(4-fluorophenoxy)piperidin-1-yl]-2-oxoethyl}-3-hydroxyquinoxaline-2-carboxamide], the IC50 was found to be 5.8 nM.

As to `CC(C)[C@H](NC(=O)c1nc2ccccc2nc1O)C(=O)N1CCC(C(O)c2ccc(F)cc2F)CC1` (stereo partly drawn) [Example 99, N-[(1S)-1-({4-[(2,4-Difluorophenyl)(hydroxy)methyl]piperidin-1-yl}carbonyl)-2-methylpropyl]-3-hydroxyquinoxaline-2-carboxamide], the IC50 is 4.9 nM.

For the compound `CC(C)[C@H](NC(=O)c1nc2ccccc2nc1O)C(=O)N1CCC(Oc2cnc(N3CCCCC3)nc2)CC1` [Example 97, 3-Hydroxy-N-[(1S)-2-methyl-1-({4-[(2-piperidin-1-ylpyrimidin-5-yl)oxy]piperidin-1-yl}carbonyl)propyl]quinoxaline-2-carboxamide], the IC50 amounted to 4.5 nM.

With `CC[C@H](NC(=O)c1nc2ccccc2nc1O)C(=O)N1CCC(Oc2ccc(F)cc2F)CC1` [Example 9, N-[(1S)-1-{[4-(2,4-Difluorophenoxy)piperidin-1-yl]carbonyl}propyl]-3-hydroxyquinoxaline-2-carboxamide], the IC50 is less than 0.6 nM.

As to `CC(C)[C@H](NC(=O)c1nc2ccccc2nc1O)C(=O)N1CCC(Oc2ccc(C(F)(F)F)cn2)CC1` [Example 36, 3-Hydroxy-N-{(1S)-2-methyl-1-[(4-{[5-(trifluoromethyl)pyridin-2-yl]oxy}piperidin-1-yl)carbonyl]propyl}quinoxaline-2-carboxamide], the IC50 was 1.8 nM.

As for `CC(C)[C@H](NC(=O)c1nc2ccccc2nc1O)C(=O)N1CCC(Oc2cnc(-c3ccccc3)nc2)CC1` [Example 81, 3-Hydroxy-N-[(1S)-2-methyl-1-({4-[(2-phenylpyrimidin-5-yl)oxy]piperidin-1-yl}carbonyl)propyl]quinoxaline-2-carboxamide], the IC50 turned out to be 4.6 nM.

As for `CC(C)[C@H](NC(=O)c1nc2ccccc2nc1O)C(=O)N1CCC(N(C)c2ccc(F)cc2)CC1` [Example 30, N-[(1S)-1-({4-[(4-Fluorophenyl)(methyl)amino]piperidin-1-yl}carbonyl)-2-methylpropyl]-3-hydroxyquinoxaline-2-carboxamide], the IC50 is 1.7 nM.

Consider `CC(C)[C@H](NC(=O)c1nc2ccccc2nc1O)C(=O)N1CCC(Oc2ccc(Cl)cc2)CC1` [Example 15, N-[(1S)-1-{[4-(4-Chlorophenoxy)piperidin-1-yl]carbonyl}-2-methylpropyl]-3-hydroxyquinoxaline-2-carboxamide], for which the IC50 stood at 18 nM.

As for `C[C@H](NC(=O)c1nc2ccccc2nc1O)C(=O)N1CCC(Oc2ccc(F)cc2)CC1` [Example 2, N-{(1S)-2-[4-(4-Fluorophenoxy)piperidin-1-yl]-1-methyl-2-oxoethyl}-3-hydroxyquinoxaline-2-carboxamide], the IC50 was 6.6 nM.

As for `O=C(N[C@H](C(=O)N1CCC(Oc2ccc(F)cn2)CC1)C1CC1)c1nc2ccccc2nc1O` [Example 14, N-[(1S)-1-Cyclopropyl-2-{4-[(5-fluoropyridin-2-yl)oxy]piperidin-1-yl}-2-oxoethyl]-3-hydroxyquinoxaline-2-carboxamide], the IC50 was determined as 25 nM.

For the compound `CC(C)[C@H](NC(=O)c1nc2ccccc2nc1O)C(=O)N1CCC(Oc2ccc(C(F)(F)F)nn2)CC1` [Example 100, 3-Hydroxy-N-{(1S)-2-methyl-1-[(4-{[6-(trifluoromethyl)pyridazin-3-yl]oxy}piperidin-1-yl)carbonyl]propyl}quinoxaline-2-carboxamide], the IC50 came to 10.4 nM.

`C[C@H](NC(=O)c1nc2ccccc2nc1O)C(=O)N1CCC(Oc2ccc(F)cn2)CC1` [Example 6, N-[(1S)-2-{4-[(5-Fluoropyridin-2-yl)oxy]piperidin-1-yl}-1-methyl-2-oxoethyl]-3-hydroxyquinoxaline-2-carboxamide]: the IC50 amounted to 74 nM.

In the case of `CC(C)[C@H](NC(=O)c1nc2ccccc2nc1O)C(=O)N1CCC(C(=O)c2ccc(F)cc2)CC1` [Example 61, N-[(1S)-1-{[4-(4-Fluorobenzoyl)piperidin-1-yl]carbonyl}-2-methylpropyl]-3-hydroxyquinoxaline-2-carboxamide], the IC50 amounted to 5.1 nM.

For `CC(C)[C@H](NC(=O)c1nc2ccccc2nc1O)C(=O)N1CCC(Oc2ccc(F)cn2)CC1` [Example 37, N-[(1S)-1-({4-[(5-Fluoropyridin-2-yl)oxy]piperidin-1-yl}carbonyl)-2-methylpropyl]-3-hydroxyquinoxaline-2-carboxamide], the IC50 came out at 5.4 nM.

In the case of `CC(C)[C@H](NC(=O)c1nc2ccccc2nc1O)C(=O)N1CCC(Nc2ccc(F)cn2)CC1` [Example 34, N-[(1S)-1-({4-[(5-Fluoropyridin-2-yl)amino]piperidin-1-yl}carbonyl)-2-methylpropyl]-3-hydroxyquinoxaline-2-carboxamide], the IC50 was found to be 12 nM.

The values are drawn from patent publication US20110053933A1, “HYDROXYQUINOXALINECARBOXAMIDE DERIVATIVE” (DAIICHI SANKYO COMPANY, LIMITED, priority 2008, published 2011).
